Assays:
HCoV-OC43 spike protein = target: T1, HCoV-OC43 spike protein (Human coronavirus OC43, UniProt P36334); assay type: binding
T1 construct: gene S

[1] = target: S-RBD protein; SARS-CoV-2 RBD (Severe acute respiratory syndrome coronavirus 2, UniProt P0DTC2); assay: 1H CPMG and STD NMR; DARTS; assay type: binding; conditions: 200 µM S416, 5 µM RBD, PBS in D2O, 5% DMSO-d6, 25 °C

T1 sequence (P36334 14-1297): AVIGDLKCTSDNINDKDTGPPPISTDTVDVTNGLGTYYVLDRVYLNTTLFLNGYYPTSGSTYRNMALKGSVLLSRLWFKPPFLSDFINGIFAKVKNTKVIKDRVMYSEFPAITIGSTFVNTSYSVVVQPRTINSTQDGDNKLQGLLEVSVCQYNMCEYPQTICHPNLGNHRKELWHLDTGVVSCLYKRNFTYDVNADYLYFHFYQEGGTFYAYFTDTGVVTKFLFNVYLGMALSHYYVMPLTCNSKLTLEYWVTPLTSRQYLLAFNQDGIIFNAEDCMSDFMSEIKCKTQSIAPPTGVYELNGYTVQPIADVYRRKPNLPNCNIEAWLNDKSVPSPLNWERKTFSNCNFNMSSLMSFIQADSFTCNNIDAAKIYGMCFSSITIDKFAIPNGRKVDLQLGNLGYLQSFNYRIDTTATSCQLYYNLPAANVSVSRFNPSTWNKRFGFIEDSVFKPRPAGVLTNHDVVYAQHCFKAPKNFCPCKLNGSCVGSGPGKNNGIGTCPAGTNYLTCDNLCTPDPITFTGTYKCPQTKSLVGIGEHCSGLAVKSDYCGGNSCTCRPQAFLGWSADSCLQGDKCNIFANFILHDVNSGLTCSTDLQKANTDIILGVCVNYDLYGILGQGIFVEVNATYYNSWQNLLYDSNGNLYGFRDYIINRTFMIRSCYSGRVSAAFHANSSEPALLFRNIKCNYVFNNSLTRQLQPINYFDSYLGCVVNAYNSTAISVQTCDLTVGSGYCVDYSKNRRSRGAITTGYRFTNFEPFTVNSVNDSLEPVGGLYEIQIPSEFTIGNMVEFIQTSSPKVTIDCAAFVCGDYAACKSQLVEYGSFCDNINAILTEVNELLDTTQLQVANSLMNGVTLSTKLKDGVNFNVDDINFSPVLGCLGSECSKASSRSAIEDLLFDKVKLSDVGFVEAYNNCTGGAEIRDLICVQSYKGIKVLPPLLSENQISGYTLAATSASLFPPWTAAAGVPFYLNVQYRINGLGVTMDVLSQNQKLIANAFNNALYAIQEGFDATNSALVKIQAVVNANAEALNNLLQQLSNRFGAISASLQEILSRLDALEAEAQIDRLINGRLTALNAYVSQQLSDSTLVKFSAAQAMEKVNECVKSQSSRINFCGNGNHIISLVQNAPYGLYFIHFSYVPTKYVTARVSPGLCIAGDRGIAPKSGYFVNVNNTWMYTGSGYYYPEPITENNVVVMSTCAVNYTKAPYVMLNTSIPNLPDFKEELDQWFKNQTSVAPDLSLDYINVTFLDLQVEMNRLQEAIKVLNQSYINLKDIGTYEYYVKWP

`CN(/N=C/c1ccccc1C(=O)O)c1nc(-c2ccccc2Cl)cs1` [S416] was tested, and the Kd (HCoV-OC43 spike protein) was 33.3 µM and the “1H CPMG and STD NMR; DARTS” value [1] was “confirmed that S416 could indeed bind to RBD directly”.

— paper PMC12279193 (Advanced Science, 2025)
